The record followed here is patent publication US9999619B2, “Piperidin-4-yl azetidine derivatives as JAK1 inhibitors” (Incyte Corporation, priority 2010, dated 2018).

Type in all cases: biochemical
Test [1] addresses Jak2 (a.a. 828-1132) (Homo sapiens (Human), UniProt O60674). Kind of test: In vitro JAK kinase assay (HTRF, phosphorylation of a biotinylated peptide), JAK2. The conditions noted are these: measured at 1 mM ATP. An outline of the steps:
(§1)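 N-terminally His-tagged catalytic domains, baculovirus-expressed in insect cells and purified, were used as enzyme. Reactions ran 1 hr at room temperature and were stopped with a mix of 45 mM EDTA, 300 nM SA-APC and 6 nM Eu-Py20. The HTRF signal was read after 40 min of antibody binding.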
Background: In TR-FRET formats the signal depends on donor and acceptor labels being close together.

Test [2] has as its target human JAK1 (a.a. 837-1142) (Homo sapiens, UniProt P23458). Kind of test: In vitro JAK kinase assay (HTRF, phosphorylation of a biotinylated peptide), JAK1. The conditions noted are these: measured at 1 mM ATP. The procedure, abridged:
as §1

Test [3] addresses human JAK1 (a.a. 837-1142). Described as above. The conditions noted are these: ratio of JAK2 IC50 to JAK1 IC50, measured at 1 mM ATP. The procedure, abridged:
as §1

Sequence of Jak2 (a.a. 828-1132) (O60674 828-1132): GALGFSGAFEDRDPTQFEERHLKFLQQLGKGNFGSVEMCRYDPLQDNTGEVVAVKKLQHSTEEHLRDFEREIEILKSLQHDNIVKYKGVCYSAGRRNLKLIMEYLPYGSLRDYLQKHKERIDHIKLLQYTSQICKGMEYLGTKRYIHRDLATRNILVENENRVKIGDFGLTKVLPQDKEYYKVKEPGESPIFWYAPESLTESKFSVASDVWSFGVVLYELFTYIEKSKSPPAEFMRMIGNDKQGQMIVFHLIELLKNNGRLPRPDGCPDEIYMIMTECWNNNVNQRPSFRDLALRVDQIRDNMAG

As to `N#CCC1(n2cc(-c3ncnc4[nH]ccc34)cn2)CN(C2CCN(C(=O)c3c(F)cncc3F)CC2)C1` [Example 61, {1-[1-(3,5-difluoroisonicotinoyl)piperidin-4-yl]-3-[4-(7H-pyrrolo[2,3-d]pyrimidin-4-yl)-1H-pyrazol-1-yl]azetidin-3-yl}acetonitrile], the IC50 (commonly the concentration that gives 50% inhibition) fell in the range of 10 to 50 nM in test [1] and 5 to 20 nM in test [2]. Moreover, the “IC50 Ratio JAK2/JAK1” value in test [3] turned out to be 4.2.
The like results for `N#CCC1(n2cc(-c3ncnc4[nH]ccc34)cn2)CN(C2CCN(C(=O)c3ccccc3F)CC2)C1` [Example 67, {1-[1-(2-fluorobenzoyl)piperidin-4-yl]-3-[4-(7H-pyrrolo[2,3-d]pyrimidin-4-yl)-1H-pyrazol-1-yl]azetidin-3-yl}acetonitrile] were, in that order, ≤ 10 nM, ≤ 5 nM and 4.7.
For `N#CCC1(n2cc(-c3ncnc4[nH]ccc34)cn2)CN(C2CCN(C(=O)c3sc(C(F)(F)F)cc3O)CC2)C1` [Example 71, {1-{1-[3-hydroxy-5-(trifluoromethyl)-2-thienylcarbonyl]piperidin-4-yl}-3-[4-(7H-pyrrolo[2,3-d]pyrimidin-4-yl)-1H-pyrazol-1-yl]azetidin-3-yl}acetonitrile], in that order: 50 to 100 nM, 20 to 30 nM and 4.4.
For `COc1cscc1C(=O)N1CCC(N2CC(CC#N)(n3cc(-c4ncnc5[nH]ccc45)cn3)C2)CC1` [Example 72, {1-{1-[(4-methoxy-3-thienyl)carbonyl]piperidin-4-yl}-3-[4-(7H-pyrrolo[2,3-d]pyrimidin-4-yl)-1H-pyrazol-1-yl]azetidin-3-yl}acetonitrile], in that order: ≤ 10 nM, ≤ 5 nM and 6.6.
Turning to `Cc1cc(C(=O)N2CCC(N3CC(CC#N)(n4cc(-c5ncnc6[nH]ccc56)cn4)C3)CC2)cs1` [Example 73, {1-{1-[(5-methyl-3-thienyl)carbonyl]piperidin-4-yl}-3-[4-(7H-pyrrolo[2,3-d]pyrimidin-4-yl)-1H-pyrazol-1-yl]azetidin-3-yl}acetonitrile], the figures for the IC50 in test [1] and in test [2] were ≤ 10 nM and ≤ 5 nM, respectively. Besides, the “IC50 Ratio JAK2/JAK1” value in test [3] is on record as 4.2.
For `COc1c(C(=O)N2CCC(N3CC(CC#N)(n4cc(-c5ncnc6[nH]ccc56)cn4)C3)CC2)csc1Cl` [Example 74, {1-{1-[(5-chloro-4-methoxy-3-thienyl)carbonyl]piperidin-4-yl}-3-[4-(7H-pyrrolo[2,3-d]pyrimidin-4-yl)-1H-pyrazol-1-yl]azetidin-3-yl}acetonitrile], in that order: 10 to 50 nM, ≤ 5 nM and 3.8.
For the compound `N#CCC1(n2cc(-c3ncnc4[nH]ccc34)cn2)CN(C2CCN(C(=O)c3ccsc3Br)CC2)C1` [Example 75, {1-{1-[(2-bromo-3-thienyl)carbonyl]piperidin-4-yl}-3-[4-(7H-pyrrolo[2,3-d]pyrimidin-4-yl)-1H-pyrazol-1-yl]azetidin-3-yl}acetonitrile], the IC50 is ≤ 10 nM in test [1] and ≤ 5 nM in test [2]. Besides, in test [3], the “IC50 Ratio JAK2/JAK1” value turned out to be 3.4.
As for `N#CCC1(n2cc(-c3ncnc4[nH]ccc34)cn2)CN(C2CCN(C(=O)c3sccc3Cl)CC2)C1` [Example 76, {1-{1-[(3-chloro-2-thienyl)carbonyl]piperidin-4-yl}-3-[4-(7H-pyrrolo[2,3-d]pyrimidin-4-yl)-1H-pyrazol-1-yl]azetidin-3-yl}acetonitrile], the IC50 in test [1] is ≤ 10 nM; in test [2], ≤ 5 nM. The “IC50 Ratio JAK2/JAK1” value in test [3] is on record as 5.5.
As for `N#CCC1(n2cc(-c3ncnc4[nH]ccc34)cn2)CN(C2CCN(C(=O)c3ccc(Cl)s3)CC2)C1` [Example 77, {1-{1-[(5-chloro-2-thienyl)carbonyl]piperidin-4-yl}-3-[4-(7H-pyrrolo[2,3-d]pyrimidin-4-yl)-1H-pyrazol-1-yl]azetidin-3-yl}acetonitrile], the IC50 in test [1] was ≤ 10 nM; in test [2], ≤ 5 nM. Moreover, in test [3], the “IC50 Ratio JAK2/JAK1” value turned out to be 5.5.
As to `Cc1ccsc1C(=O)N1CCC(N2CC(CC#N)(n3cc(-c4ncnc5[nH]ccc45)cn3)C2)CC1` [Example 78, {1-{1-[(3-methyl-2-thienyl)carbonyl]piperidin-4-yl}-3-[4-(7H-pyrrolo[2,3-d]pyrimidin-4-yl)-1H-pyrazol-1-yl]azetidin-3-yl}acetonitrile], the IC50 in test [1] is 10 to 50 nM; in test [2], ≤ 5 nM. Moreover, in test [3], the “IC50 Ratio JAK2/JAK1” value is reported as 5.4.
The like results for `Cc1ccc(C(=O)N2CCC(N3CC(CC#N)(n4cc(-c5ncnc6[nH]ccc56)cn4)C3)CC2)s1` [Example 80, {1-{1-[(5-methyl-2-thienyl)carbonyl]piperidin-4-yl}-3-[4-(7H-pyrrolo[2,3-d]pyrimidin-4-yl)-1H-pyrazol-1-yl]azetidin-3-yl}acetonitrile] were, in that order, ≤ 10 nM, ≤ 5 nM and 4.1.
On to `COc1ccsc1C(=O)N1CCC(N2CC(CC#N)(n3cc(-c4ncnc5[nH]ccc45)cn3)C2)CC1` [Example 81, {1-{1-[(3-methoxy-2-thienyl)carbonyl]piperidin-4-yl}-3-[4-(7H-pyrrolo[2,3-d]pyrimidin-4-yl)-1H-pyrazol-1-yl]azetidin-3-yl}acetonitrile], for which the IC50 in test [1] was ≤ 10 nM; in test [2] it was ≤ 5 nM. Also, the “IC50 Ratio JAK2/JAK1” value in test [3] turned out to be 4.2.
The like results for `N#CCC1(n2cc(-c3ncnc4[nH]ccc34)cn2)CN(C2CCN(C(=O)c3ccc(C(F)(F)F)cc3F)CC2)C1` [Example 82, {1-{1-[2-fluoro-4-(trifluoromethyl)benzoyl]piperidin-4-yl}-3-[4-(7H-pyrrolo[2,3-d]pyrimidin-4-yl)-1H-pyrazol-1-yl]azetidin-3-yl}acetonitrile] were, in that order, ≤ 10 nM, ≤ 5 nM and 5.3.
As for `N#CCC1(n2cc(-c3ncnc4[nH]ccc34)cn2)CN(C2CCN(C(=O)c3c(F)cc(C#N)cc3F)CC2)C1` [Example 83, 4-[(4-{3-(cyanomethyl)-3-[4-(7H-pyrrolo[2,3-d]pyrimidin-4-yl)-1H-pyrazol-1-yl]azetidin-1-yl}piperidin-1-yl)carbonyl]-3,5-difluorobenzonitrile], the IC50 in test [1] is 10 to 50 nM; in test [2] it was ≤ 5 nM. Besides, in test [3], the “IC50 Ratio JAK2/JAK1” value was determined as 5.8.
The like results for `N#CCC1(n2cc(-c3ncnc4[nH]ccc34)cn2)CN(C2CCN(C(=O)c3ccc(O)c(Cl)c3)CC2)C1` [Example 84, {1-[1-(3-chloro-4-hydroxybenzoyl)piperidin-4-yl]-3-[4-(7H-pyrrolo[2,3-d]pyrimidin-4-yl)-1H-pyrazol-1-yl]azetidin-3-yl}acetonitrile] were, in that order, 10 to 50 nM, ≤ 5 nM and 6.5.
For `N#CCC1(n2cc(-c3ncnc4[nH]ccc34)cn2)CN(C2CCN(C(=O)c3cncc(C(F)(F)F)n3)CC2)C1` [Example 86, [3-[4-(7H-pyrrolo[2,3-d]pyrimidin-4-yl)-1H-pyrazol-1-yl]-1-(1-{[6-(trifluoromethyl)pyrazin-2-yl]carbonyl}piperidin-4-yl)azetidin-3-yl]acetonitrile], in that order: 50 to 100 nM, ≤ 5 nM and 19.4.
